# Experiments:
# [1] = test system: Ab 927
# [2] = test system: antibodies from rabbits (anti BSA-cholylglycine conjugate), Ab 927; test: Antibody titer curves using cholylglycyl-125I-histamine (or 3H-cholylglycine) tracer; assay type: binding, rabbit
# Method: Young adult male New Zealand white rabbits were immunized at multiple sites on the back at bi-weekly intervals using 1.0 ml of BSA-cholylglycine conjugate (50 μg) emulsified with an equal volume of Freund's adjuvant. Serum was harvested every 2 weeks beginning one month after the initial immunization. […] 1 mg bovine gamma globulin was included in each tube. […] The supernate (bound) was decanted into another tube and both the charcoal (free) and supernate (bound) tubes were counted in a γ-spectrometer (Elscint). Results were expressed as the bound/free (B/F) ratio. A standard curve was constructed and unknowns were quantitated from a standard curve run with each assay. Antibodies from six different rabbits were produced and tested.
# [3] = test system: Ab 927; test: Radioimmunoassay cross-reactivity / displacement of cholylglycyl-125I-histamine tracer (Specificity of Tracer and Antibody)
compound,measurement,setting,value
C[C@H](CCC(=O)O)[C@H]1CC[C@H]2[C@@H]3CC[C@@H]4C[C@H](O)CC[C@]4(C)[C@H]3CC[C@]12C [Lithocholic acid],activity,[1],2%
Cholylglycyl-^125 I-histamine [cholylglycyl-125I-histamine],initial B/F (bound/free ratio),"[2]; 1:100 dilution, approximately 3000 CPM cholylglycyl-125I-histamine, four antibodies",10.5 to 14.2
same,Non-specific binding,"[2]; CPM in supernate without antibody, unchanged as long as 6 months after iodination",2-4%
same,binding of tracer,"[2]; corresponds to B/F 14.2, 1:100 dilution",93%
same,specificity (in words),[3],"maintain a specificity toward the conjugated bile salts, particularly cholate and chenodeoxycholate conjugates"
C[C@H](CCC(=O)NCC(=O)NCCc1c[nH]cn1)[C@H]1CC[C@H]2[C@@H]3[C@H](O)C[C@@H]4C[C@H](O)CC[C@]4(C)[C@H]3C[C@H](O)[C@]12C [cholylglycylhistamine],Amount required for displacement relative to other bile salts (fold less),"[3]; FIG. 4, less than other bile salts",approximately 10 fold
same,affinity (in words),[3]; explanation for sensitivity not rising with titer,greater affinity

# Reference: patent US4207308A, “Process for purifying iodinated bile acid conjugates” (priority 1977, dated 1980)
